# In US6995143B2, “Macrolides with antibacterial activity” (Basilea Pharmaceutica AG, priority 2002, dated 2006):
# What was measured:
# Format in all cases: cell-based
# [1] = test system: Streptococcus pneumoniae l/l; assay: MIC, standard microdilution technique; conditions: for MIC: read-out: minimum inhibitory concentration (MIC), Strain E
# Description: (§1) The antibacterial activities of the compounds have been determined by standard microdilution technique (National Committee for Clinical Laboratory Standards. 2000. Methods for Dilution Antimicrobial Susceptibility Tests for Bacteria that Grow Aerobically, 5th edition. Approved standard M7-A5. National Committee for Clinical Laboratory Standards, Wayne, Pa.).
# [2] = test system: Staphylococcus aureus ATCC 29213; assay: MIC, standard microdilution technique; conditions: for MIC: ATCC29213, read-out: minimum inhibitory concentration (MIC), Strain A
# Description: as §1
# [3] = test system: Staphylococcus aureus 1086; assay: MIC, standard microdilution technique; conditions: for MIC: read-out: minimum inhibitory concentration (MIC), Strain B
# Description: as §1
# [4] = test system: Streptococcus pneumoniae ¼; assay: MIC, standard microdilution technique; conditions: for MIC: read-out: minimum inhibitory concentration (MIC), Strain F
# Description: as §1
# [5] = test system: Streptococcus pneumoniae SL199T; assay: MIC, standard microdilution technique; conditions: for MIC: read-out: minimum inhibitory concentration (MIC), Strain G
# Description: as §1
# [6] = test system: Streptococcus pneumoniae 12288; assay: MIC, standard microdilution technique; conditions: for MIC: read-out: minimum inhibitory concentration (MIC), Strain H
# Description: as §1
# [7] = test system: Staphylococcus aureus 745; assay: MIC, standard microdilution technique; conditions: for MIC: read-out: minimum inhibitory concentration (MIC), Strain C
# Description: as §1
# [8] = test system: Escherichia coli ATCC 25922; assay: MIC, standard microdilution technique; conditions: for MIC: ATCC25922, read-out: minimum inhibitory concentration (MIC), Strain D
# Description: as §1
# [9] = test system: Haemophilus influenzae QK50; assay: MIC, standard agar dilution method using HTM medium; conditions: for MIC: read-out: minimum inhibitory concentration (MIC), Strain L
# Description: as §1, with “biological” for “antibacterial”, “of compounds of” for “of”, “present invention against Haemophilus influenzae” for “compounds”, “agar dilution method using HTM medium” for “microdilution technique”
# [10] = test system: Haemophilus influenzae B1501; assay: as above; conditions: for MIC: read-out: minimum inhibitory concentration (MIC), Strain M
# Description: as §1, with “biological” for “antibacterial”, “of compounds of” for “of”, “present invention against Haemophilus influenzae” for “compounds”, “agar dilution method using HTM medium” for “microdilution technique”
# [11] = test system: Haemophilus influenzae QK12/87; assay: as above; conditions: for MIC: read-out: minimum inhibitory concentration (MIC), Strain I
# Description: as §1, with “biological” for “antibacterial”, “of compounds of” for “of”, “present invention against Haemophilus influenzae” for “compounds”, “agar dilution method using HTM medium” for “microdilution technique”
# [12] = test system: Haemophilus influenzae 12214; assay: as above; conditions: for MIC: read-out: minimum inhibitory concentration (MIC), Strain K
# Description: as §1, with “biological” for “antibacterial”, “of compounds of” for “of”, “present invention against Haemophilus influenzae” for “compounds”, “agar dilution method using HTM medium” for “microdilution technique”
Structure (SMILES),MIC [2],MIC [3],MIC [5],MIC [6],MIC [7],MIC [8],MIC [9],MIC [10],"minimum inhibitory concentration (MIC), Strain E [1]","minimum inhibitory concentration (MIC), Strain A [2]","minimum inhibitory concentration (MIC), Strain B [3]","minimum inhibitory concentration (MIC), Strain F [4]","minimum inhibitory concentration (MIC), Strain G [5]","minimum inhibitory concentration (MIC), Strain H [6]","minimum inhibitory concentration (MIC), Strain C [7]","minimum inhibitory concentration (MIC), Strain D [8]","minimum inhibitory concentration (MIC), Strain L [9]","minimum inhibitory concentration (MIC), Strain M [10]","minimum inhibitory concentration (MIC), Strain I [11]","minimum inhibitory concentration (MIC), Strain K [12]",also measured
"CC[C@H]1OC(=O)[C@@](C)(F)C(=O)[C@H](C)[C@@H](O[C@@H]2O[C@H](C)C[C@H](N(C)C)[C@H]2O)[C@](C)(OC)C[C@@H](C)C(=O)[C@H](C)[C@H]2[C@@H](SCc3ccc(OC)cc3)C(=O)O[C@@]21C (single isomer, unassigned) [Example 1, (3R or S, 3aR, 4R or S, 6R, 8R, 9R, 10R, 12S, 15R, 15aS)-15-Ethyl-12-fluorooctahydro-8-methoxy-3-[[(4-methoxyphenyl)methyl]thio]-4,6,8,10,12,15a-hexamethyl-9-[[3,4,6-trideoxy-3-(dimethylamino)-β-D-xylo-hexopyranosyl]oxy]-2H-furo [2,3-c] oxacyclotetradecin-2,5,11,13 (3H,6H,12H)-tetrone]",2 µg/mL,2 µg/mL,32 µg/mL,> 32 µg/mL,> 32 µg/mL,> 32 µg/mL,32 µg/mL,32 µg/mL,–,–,–,–,–,–,–,–,–,–,–,–,MIC [1]: 0.5 µg/mL; MIC [4]: 8 µg/mL; MIC [11]: > 32 µg/mL; MIC [12]: > 32 µg/mL
"CC[C@H]1OC(=O)[C@@](C)(F)C(=O)[C@H](C)[C@@H](O[C@@H]2O[C@H](C)C[C@H](N(C)C)[C@H]2O)[C@](C)(OC)C[C@@H](C)C(=O)[C@H](C)[C@H]2[C@@H](S(=O)(=O)Cc3ccc(OC)cc3)C(=O)O[C@@]21C (single isomer, unassigned) [Example 2]",–,–,–,–,–,–,–,–,<=0.06 μg/ml,2 µg/mL,2 µg/mL,4 µg/mL,>32 µg/mL,>32 µg/mL,>32 µg/mL,>32 µg/mL,32 µg/mL,>32 µg/mL,>32 µg/mL,>32 µg/mL,–
"CC[C@H]1OC(=O)[C@H](C)C(=O)[C@H](C)[C@@H](O[C@@H]2O[C@H](C)C[C@H](N(C)C)[C@H]2O)[C@](C)(OC)C[C@@H](C)C(=O)[C@H](C)[C@H]2[C@@H](SSc3ncccc3[N+](=O)[O-])C(=O)O[C@@]21C (single isomer, unassigned) [Example 3]",–,–,–,–,–,–,–,–,<=0.06 μg/ml,2 µg/mL,2 µg/mL,16 µg/mL,32 µg/mL,>32 µg/mL,>32 µg/mL,>32 µg/mL,>32 µg/mL,>32 µg/mL,>32 µg/mL,>32 µg/mL,–
"CC[C@H]1OC(=O)[C@H](C)C(=O)[C@H](C)[C@@H](O[C@@H]2O[C@H](C)C[C@H](N(C)C)[C@H]2O)[C@](C)(OC)C[C@@H](C)C(=O)[C@H](C)[C@H]2[C@@H](SCC(=O)OC)C(=O)O[C@@]21C (single isomer, unassigned) [Example 5]",–,–,–,–,–,–,–,–,0.125 µg/mL,1 µg/mL,1 µg/mL,>32 µg/mL,>32 µg/mL,>32 µg/mL,>32 µg/mL,>32 µg/mL,32 µg/mL,16 µg/mL,32 µg/mL,32 µg/mL,–
"CC[C@H]1OC(=O)[C@@](C)(F)C(=O)[C@H](C)[C@@H](O[C@@H]2O[C@H](C)C[C@H](N(C)C)[C@H]2O)[C@](C)(OC)C[C@@H](C)C(=O)[C@H](C)[C@H]2[C@@H](SCCCn3cc(-c4ccccc4)cn3)C(=O)O[C@@]21C (single isomer, unassigned) [Example 10]",–,–,–,–,–,–,–,–,0.5 µg/mL,0.5 µg/mL,0.5 µg/mL,2 µg/mL,8 µg/mL,16 µg/mL,>32 µg/mL,>32 µg/mL,32 µg/mL,>32 µg/mL,32 µg/mL,>32 µg/mL,–
"CC[C@H]1OC(=O)[C@@](C)(F)C(=O)[C@H](C)[C@@H](O[C@@H]2O[C@H](C)C[C@H](N(C)C)[C@H]2O)[C@](C)(OC)C[C@@H](C)C(=O)[C@H](C)[C@H]2[C@@H](SCCn3cnc(-c4cccnc4)n3)C(=O)O[C@@]21C (single isomer, unassigned) [Example 12, (3R or S, 3aR, 4R or S, 6R, 8R, 9R, 10R, 12S, 15R, 15aS)-15-Ethyl-12-fluorooctahydro-8-methoxy-4,6,8,10,12,15a-hexamethyl-3-[[2-[3-(3-pyridinyl)-1H-1,2,4-triazole-1-yl]ethyl]thio]-9-[[3,4,6-trideoxy-3-(dimethylamino)-β-D-xylo-hexopyranosyl]oxy]-2H-furo [2,3-c] oxacyclotetradecin-2,5,11,13 (3H,6H,12H)-tetrone]",≤ 0.06 µg/mL,≤ 0.06 µg/mL,0.25 µg/mL,4 µg/mL,> 32 µg/mL,> 32 µg/mL,4 µg/mL,4 µg/mL,–,–,–,–,–,–,–,–,–,–,–,–,MIC [1]: ≤ 0.06 µg/mL; MIC [4]: ≤ 0.06 µg/mL; MIC [11]: 8 µg/mL; MIC [12]: 4 µg/mL
"CC[C@H]1OC(=O)[C@@](C)(F)C(=O)[C@H](C)[C@@H](O[C@@H]2O[C@H](C)C[C@H](N(C)C)[C@H]2O)[C@](C)(OC)C[C@@H](C)C(=O)[C@H](C)[C@H]2[C@@H](SCCOCn3cc(C)c(=O)[nH]c3=O)C(=O)O[C@@]21C (single isomer, unassigned) [Example 14, (3R or S) 3aR, 4R or S, 6R, 8R, 9R, 10R, 12S, 15R, 15aS)-15-Ethyl-12-fluorooctahydro-8-methoxy-4,6,8,10,12,15a-hexamethyl-3-[[2-[[5-methyl-2,4-(1H,3H)-pyrimidinedione-1-yl]methoxy]ethyl]thio]-9-[[3,4,6-trideoxy-3-(dimethylamino)-β-D-xylo-hexopyranosyl]oxy]-2H-furo [2,3-c] oxacyclotetradecin-2,5,11,13 (3H,6H,12H)-tetrone]",–,–,–,–,–,–,–,–,<=0.06 μg/ml,<=0.06 μg/ml,<=0.06 μg/ml,2 µg/mL,1 µg/mL,16 µg/mL,>32 µg/mL,>32 µg/mL,2 µg/mL,2 µg/mL,2 µg/mL,2 µg/mL,–
"CC[C@H]1OC(=O)[C@H](C)C(=O)[C@H](C)[C@@H](O[C@@H]2O[C@H](C)C[C@H](N(C)C)[C@H]2O)[C@](C)(OC)C[C@@H](C)C(=O)[C@H](C)[C@H]2[C@@H](S(=O)(=O)CCNC(=O)c3cccnc3)C(=O)O[C@@]21C (single isomer, unassigned) [Example 43, (3R or S, 3aR, 4R or S, 6R, 8R, 9R, 10R, 12R, 15R, 15aS) -15-Ethyloctahydro-8-methoxy-4,6,8,10,12,15a-hexamethyl-3-[[2-[(3-pyridinylcarbonyl)amino]ethyl]sulfonyl]-9-[[-3,4,6-trideoxy-3-(dimethylamino)-β-D-xylo-hexopyranosyl]oxy]-2H-furo [2,3-c] oxacyclotetradecin-2,5,11,13 (3H,6H,12H)-tetrone]",2 µg/mL,1 µg/mL,32 µg/mL,> 32 µg/mL,> 32 µg/mL,> 32 µg/mL,16 µg/mL,8 µg/mL,–,–,–,–,–,–,–,–,–,–,–,–,MIC [11]: 16 µg/mL; MIC [12]: 16 µg/mL
